From US10206937B2, “Boronic acid derivatives and therapeutic uses thereof” (Qpex Biopharma, Inc., priority 2014, dated 2019)

Test system: strains of Enterobacteriaceae producing various carbapenemases (class A, D and B; 104 strains)
Assay: Antibiotics potentiation by Compound 27 (MIC; meropenem, doripenem, ertapenem, cefepime)
Type: cell-based
Settings: + 27 = with Compound 27 at fixed 4 μg/ml

Measured: MIC

C[C@@H](O)[C@H]1C(=O)N2C(C(=O)O)=C(S[C@@H]3CN[C@H](C(=O)Nc4cccc(C(=O)O)c4)C3)[C@H](C)[C@H]12 [E]
X (MIC of less than 1 μg/mL): strain EC1007 Escherichia coli (KPC-3)
Y (MIC of 1 μg/mL to 10 μg/mL): strain CF1021 Citrobacter freundii (CMY-type; VIM-1) | strain CF1022 Citrobacter freundii (SHV-12(2be), TEM-OSBL(2b); IMP-8) | strain CL1080 Enterobacter cloacae (IMP-1) | strain EC1062 Escherichia coli (OXA-48, CTX-M-15) | strain EC1065 Escherichia coli (IMP-1) | strain ECL1036 Enterobacter cloacae (KPC-3, TEM-1) | strain ECL1059 Enterobacter cloacae (KPC-3, SHV-12, TEM-1) | strain ECL1082 Enterobacter cloacae (VIM-1) | strain ECL1090 Enterobacter cloacae (TEM-1(2b); CTX-M-22; ACT-type; IMP-8) | strain ECL1091 Enterobacter cloacae (VIM-1) | strain ECL1092 Enterobacter cloacae (TEM-OSBL(2b); ACT-32; VIM-1) | strain ECL1093 Enterobacter cloacae (TEM-OSBL(2b); ACT-32; VIM-1) | strain KP1002 Klebsiella pneumoniae (KPC TEM SHV) | strain KP1008 Klebsiella pneumoniae (KPC-2) | strain KP1014 Klebsiella pneumoniae (VIM-1, TEM, SHV) | strain KP1054 Klebsiella pneumoniae (VIM-1, SHV-11) | strain KP1065 Klebsiella pneumoniae (VIM-1, SHV-11) | strain KP1095 Klebsiella pneumoniae (KPC-2 TEM-1 SHV-1) | strain KP1167 Klebsiella pneumoniae (SHV-12(2be); VIM-1) | strain KP1169 Klebsiella pneumoniae (SHV-11(2b); VIM-1) | strain KP1172 Klebsiella pneumoniae (SHV-31(2be); DHA-1; VIM-1) | strain KP1173 Klebsiella pneumoniae (TEM-33(2br); CTX-M-15; IMP-1) | strain KP1180 Klebsiella pneumoniae (SHV-OSBL(2b), TEM-OSBL(2b); CTX-M-15; DHA-1; IMP-26) | strain KP1181 Klebsiella pneumoniae (SHV-OSBL(2b); CTX-M-15; IMP-26) | strain KP1184 Klebsiella pneumoniae (SHV-OSBL(2b); IMP-1) | strain KPM1203 Klebsiella pneumoniae (KPC SHV TEM) | strain KPM1344 Klebsiella pneumoniae (VIM-1) | strain KPM1345 Klebsiella pneumoniae (VIM-1 SHV) | strain KX1018 Klebsiella oxytoca (KPC-2, SHV-40, OXY-1) | strain PM1024 Proteus mirabilis (TEM-1(2b); CMY-16; VIM-1) | strain PM1026 Proteus mirabilis (DHA-1; IMP-26)
Z (MIC of greater than 10 μg/mL): strain CF1012 Citrobacter freundii (KPC-2) | strain CF1023 Citrobacter freundii (SHV-12(2be), TEM-OSBL(2b); CTX-M-3; CMY-34; NDM-1) | strain EA1019 Enterobacter aerogenes (SHV-5, VIM-1) | strain EC1061 Escherichia coli (NDM-1, CMY-6) | strain EC1064 Escherichia coli (NDM-1, CMY-6, CTX-M-15) | strain EC1068 Escherichia coli (VIM-1) | strain EC1069 Escherichia coli (CTX-M-27; NDM-1) | strain EC1070 Escherichia coli (TEM-OSBL(2b); CMY-42; NDM-5) | strain EC1072 Escherichia coli (CTX-M-3; NDM-1) | strain ECL1004 Enterobacter cloacae (NMC-A) | strain ECL1026 Enterobacter cloacae (KPC-2, TEM-1) | strain ECL1045 Enterobacter cloacae (VIM-1) | strain ECL1055 Enterobacter cloacae (KPC-3, TEM) | strain ECL1057 Enterobacter cloacae (NDM-1, TEM-1, CTX-M-15) | strain ECL1058 Enterobacter cloacae (KPC-3, SHV-11, TEM-1) | strain ECL1061 Enterobacter cloacae (KPC-3, Hyper AmpC expression) | strain ECL1084 Enterobacter cloacae (CTX-M-15; ACT-16; NDM-1) | strain ECL1085 Enterobacter cloacae (SHV-31(2be), TEM-1(2b); CTX-M-15; NDM-1) | strain ECL1086 Enterobacter cloacae (VIM-31, OXA-48(c)) | strain ECL1087 Enterobacter cloacae (VIM-1) | strain ECL1088 Enterobacter cloacae (TEM-1(2b); CTX-M-14; ACT-type; VIM-1) | strain ECL1089 Enterobacter cloacae (ACT-type; IMP-1) | strain ECL1094 Enterobacter cloacae (VIM-1) | strain ECL1096 Enterobacter cloacae (CMY-4, VIM-4, OXA-48(c)) | strain ECL1097 Enterobacter cloacae (SHV-31(2be), TEM-OSBL(2b); CTX-M-15; ACT-31; NDM-1) | strain ECL1098 Enterobacter cloacae (TEM-OSBL(2b); DHA-1; ACT-16; NDM-1) | strain KP1001 Klebsiella pneumoniae (KPC TEM SHV) | strain KP1003 Klebsiella pneumoniae (KPC TEM SHV) | strain KP1004 Klebsiella pneumoniae (KPC-2, TEM-1, SHV-11) | strain KP1059 Klebsiella pneumoniae (VIM-1, SHV-11) | strain KP1061 Klebsiella pneumoniae (KPC-3, SHV-11, TEM-1) | strain KP1064 Klebsiella pneumoniae (KPC-2, SHV-11, TEM-1) | strain KP1070 Klebsiella pneumoniae (KPC-2, SHV-11, TEM-1) | strain KP1074 Klebsiella pneumoniae (KPC-3, SHV-11, TEM) | strain KP1081 Klebsiella pneumoniae (NDM-1, TEM-1, SHV-11, CMY-6, CTX-M-15) | strain KP1082 Klebsiella pneumoniae (KPC-2, SHV-1) | strain KP1083 Klebsiella pneumoniae (KPC-3, SHV-1, TEM-1) | strain KP1084 Klebsiella pneumoniae (KPC-3, SHV-11, TEM-1) | strain KP1086 Klebsiella pneumoniae (OXA-48, CTX-M-15, TEM, SHV) | strain KP1087 Klebsiella pneumoniae (KPC-2, CTX-M-15, SHV-11, TEM-1) | strain KP1088 Klebsiella pneumoniae (KPC-3, SHV-11, TEM-1) | strain KP1089 Klebsiella pneumonias (OXA-181, CTX-M-15, TEM, SHV) | strain KP1096 Klebsiella pneumoniae (KPC-2 TEM-181 SHV-11) | strain KP1097 Klebsiella pneumonias (IMP-1) | strain KP1098 Klebsiella pneumoniae (IMP-26) | strain KP1104 Klebsiella pneumoniae (KPC TEM) | strain KP1105 Klebsiella pneumoniae (KPC TEM SHV) | strain KP1159 Klebsiella pneumoniae (SHV-1(2b); CTX-M-15; IMP-4) | strain KP1160 Klebsiella pneumoniae (SHV-28(2be); CTX-M-15; IMP-26) | strain KP1161 Klebsiella pneumoniae (NDM-1) | strain KP1164 Klebsiella pneumoniae (SHV-12(2be); VIM-1) | strain KP1165 Klebsiella pneumoniae (SHV-11(2b); CTX-M-15; VIM-27) | strain KP1166 Klebsiella pneumoniae (SHV-5(2be); VIM-26) | strain KP1170 Klebsiella pneumoniae (SHV-11(2b); CTX-M-15; NDM-1) | strain KP1174 Klebsiella pneumoniae (CTX-M-14; IMP-1) | strain KP1175 Klebsiella pneumoniae (SHV-OSBL(2b); VIM-1) | strain KP1177 Klebsiella pneumoniae (SHV-OSBL(2b), TEM-OSBL(2b); CTX-M-15; NDM-1) | strain KP1178 Klebsiella pneumoniae (SHV-OSBL(2b;) TEM-OSBL(2b); CTX-M-15; NDM-1) | strain KP1179 Klebsiella pneumoniae (SHV-12(2be), TEM-OSBL(2b); CTX-M-15; NDM-7) | strain KP1183 Klebsiella pneumoniae (SHV-OSBL(2b), TEM-OSBL(2b); CTX-M-15; NDM-1) | strain KP1185 Klebsiella pneumoniae (SHV-OSBL(2b), TEM-OSBL(2b); IMP-4) | strain KP1186 Klebsiella pneumoniae (CTX-M-15; NDM-1) | strain KP1187 Klebsiella pneumoniae (SHV-55(2be), TEM-OSBL(2b); CTX-M-15; NDM-1) | strain KP1188 Klebsiella pneumoniae (SHV-OSBL(2b); CTX-M-15; NDM-1) | strain KP1189 Klebsiella pneumoniae (TEM-OSBL(2b); CTX-M-15; CTX-M-27; NDM-1) | strain KPM1123 Klebsiella pneumoniae (KPC-2 TEM SHV) | strain KPM1202 Klebsiella pneumoniae (KPC SHV TEM) | strain KPM1347 Klebsiella pneumoniae (NDM-1 SHV CTX-M-15) | strain KX1017 Klebsiella oxytoca (KPC-2, OXA-2, SHV-30) | strain KX1019 Klebsiella oxytoca (KPC-2, OXA-2) | strain PM1027 Proteus mirabilis (VIM-5) | strain SM1023 Serratia marcescens (VIM-4)
